Assay results: article PMC4276521 (Biochemical pharmacology, 2014)
Values joined by “and” are separate entries in the source; they are usually repeats but may differ in a detail not shown here. Identical values can stand only once. Counter-ions that a name gives are not always drawn. Like-named read-outs stand apart in the source and are kept apart here.

Columns and labels:
DRD2 [1] = target: T1, DRD2 (Homo sapiens, UniProt P14416)
DRD2 [2] = target: T1, DRD2; assay: cell-based
DRD2 [3] = target: T1, DRD2; remark: listed apart in the source
DRD2 [4] = target: T1, DRD2; remark: listed apart in the source
DRD2 [5] = target: T1, DRD2; settings: HEK-AC5/D2 cells; percentage of dopamine's response, standard error in brackets

T1 sequence (P14416 whole entry, species assumed): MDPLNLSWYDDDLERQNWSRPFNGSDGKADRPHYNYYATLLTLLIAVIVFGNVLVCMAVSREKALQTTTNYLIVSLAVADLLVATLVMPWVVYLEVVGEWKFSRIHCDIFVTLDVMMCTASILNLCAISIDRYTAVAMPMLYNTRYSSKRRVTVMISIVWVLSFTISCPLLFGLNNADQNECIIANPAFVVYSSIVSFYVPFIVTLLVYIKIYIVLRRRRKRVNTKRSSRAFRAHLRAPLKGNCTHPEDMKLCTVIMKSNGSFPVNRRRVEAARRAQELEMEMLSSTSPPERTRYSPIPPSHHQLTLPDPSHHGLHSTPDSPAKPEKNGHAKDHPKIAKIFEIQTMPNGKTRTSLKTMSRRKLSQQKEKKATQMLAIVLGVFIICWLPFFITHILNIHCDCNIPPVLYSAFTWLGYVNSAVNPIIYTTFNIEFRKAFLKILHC

DMR (AUC) Max (DRD2 [4]; HEK-D2 cells, percentage of dopamine's response, standard error in brackets) | Gαi/o activation Max (DRD2 [1]; HEK-AC5/D2 cells, percentage of dopamine's response, standard error in brackets) | Gβγ activation Max (DRD2 [3]; HEK-AC2/D2 cells, percentage of dopamine's response, standard error in brackets) | DMR (AUC) Max (DRD2 [4]) | Structure (SMILES) | Gαi/o activation Max (DRD2 [1]) | EC50 (DRD2 [2]) [nM] | Gβγ activation Max (DRD2 [3]) | Sensitization Max (DRD2 [5])
 |  |  |  | CCCN(CCc1cccs1)[C@H]1CCc2c(O)cccc2C1 [Rotigotine, rotigotine hydrochloride] | 88 (±4) % | 0.05 | 79% and 79 (±4) % | 
100 (±2) % | 81 (±6) % | 70 (±4) % |  | CCCN(CCC)CCc1cccc2c1CC(=O)N2 [Ropinirole, ropinirole hydrochloride] |  |  |  | 126 (±3) %
 |  |  | 98 (±2) % | CCCN[C@H]1CCc2nc(N)sc2C1 [Pramipexole, pramipexole dihydrochloride] | 87 (±4) % |  | 98% and 98 (±5) % | 
